From US10426718B2, “Compositions and methods for treating hair loss and delaying aging of skin” (Phyto Tech Corp., priority 2012, dated 2019) come the findings set out here.

Format in all cases: in vivo, mouse
Data set [1] has as its system C57BL/6J male mice. Briefly: hair regrowth on depilated dorsal skin. The following applies: DHM 10% (w/w-%), 1 ml topical daily, day 12; vs vehicle control; similar to minoxidil 2%; P<0.05, N=10. From the text: (§1) A total of 40 seven-week-old, wild type C57BL/6J male mice were used for the study. The mice were housed individually (one mouse/cage). The mice were randomly assigned to one of four treatment groups that contained 10 mice per group. The treatment groups included a vehicle control, a positive control (minoxidil 2%), DHM 5% (w/w-%), and DHM 10% (w/w-%).
(§2) The vehicle used for all treatment groups was a mixture of alcohol denat., propanediol, water, ethylhexylglycerin, and phenoxyethanol. The DHM used in the DHM treatment groups has a purity of 98%.
(§3) The DHM 10% treatment contained the following percentage concentrations (w/w-%): 20% alcohol denat., 10% DHM, 50% propanediol, 19.5% water, and 0.5% ethylhexylglycerin and phenoxyethanol.
(§4) The hair of the dorsal skin (2×5 cm) from every mouse was removed by clipping and topical application of calcium thioglycolate to depilate the clipped area. The next day, mice without visible wounds were used for the study. The mice received a daily topical application of 1 ml of their respective treatment per day. Hair regrowth was quantified by analyzing photographs that were taken of each mouse every 4 days after topical treatment for a total of 21 days (day 0, 4, 8, 12, 16, and 21). For each mouse, an area of 3 cm^2 of the back was analyzed. All experiments were continued for 21 days. […]

A further data set concerns c57BL/6J mice. Briefly: topical toxicity / allergic reaction test, Vaseline mixed with DHM on shaved skin. The settings on record: Vaseline mixed with 1 g DHM, six weeks. The text has this: To determine whether topical application of DHM is toxic or causes allergic reaction, Vaseline mixed with 1 g DHM was applied to the shaved skin of c57BL/6J mice for six weeks.
Data set [2] has as its system chronically stressed C57BL/6J mice. Put plainly: open field test (OFT) behavioral anxiety test in chronically stressed mice. The settings on record: 1 μM DHM in Vaseline, topical once per day for six weeks. On the procedure:
(§5) The effectiveness of DHM in the treatment of stress-induced hair loss was tested using two groups of eight week old C57BL/6J mice. Chronic stress was induced in the first group (n=20) by restraining each mouse in the test group for 3 hours per day for 21 consecutive days in a modified 50 ml clear polystyrene conical centrifuge tube with multiple air holes for ventilation. The second group of mice (n=10) remained undisturbed in their home cages (Fernandex-Vozmediano et al. (1994) “Contact dermatitis due to topical spironolactone.” Contact Dermatitis 30: 118-9; Tresch, et al. (2011) “T cell-mediated acute localized exanthematous pustulosis caused by finasteride.” J Allergy Clin Immunol 129: 589-94). The completion of the 21 day stress-induction cycle was followed by a two day withdrawal. […] The rodents' stress levels were also assessed via elevated plus maze (EPM) and open field test (OFT). […] Within the context of EPM, anxiety-related behavior was measured by the degree to which a mouse avoided the unenclosed arms of the maze. […] In OFT, each mouse was placed on an empty table surrounded by walls, and the mouse's movements and the time it spent moving were monitored. Within the context of OFT, anxiety-related behavior was measured by the degree to which a mouse avoided the open center and stayed close to the walls. […]

For data set [3] the test system is unchanged. Briefly: elevated plus maze (EPM) behavioral anxiety test in chronically stressed mice. The following applies: for behavioral anxiety (EPM and OFT together): 1 μM DHM, daily topical treatment for 6 weeks, chronically stressed mice. On the procedure: The effectiveness of DHM in the treatment of stress-induced hair loss was tested using two groups of eight week old C57BL/6J mice. Chronic stress was induced in the first group (n=20) by restraining each mouse in the test group for 3 hours per day for 21 consecutive days in a modified 50 ml clear polystyrene conical centrifuge tube with multiple air holes for ventilation. The second group of mice (n=10) remained undisturbed in their home cages (Fernandex-Vozmediano et al. (1994) “Contact dermatitis due to topical spironolactone.” Contact Dermatitis 30: 118-9; Tresch, et al. (2011) “T cell-mediated acute localized exanthematous pustulosis caused by finasteride.” J Allergy Clin Immunol 129: 589-94). The completion of the 21 day stress-induction cycle was followed by a two day withdrawal. […] The rodents' stress levels were also assessed via elevated plus maze (EPM) and open field test (OFT). EPM and OFT are behavioral tests that are commonly used to assess anxiety by measuring a mouse's locomotor activity and willingness to explore. When anxious, rodents naturally prefer enclosed dark spaces to opened brightly lit spaces. In the EPM test, individual mice from each group were placed on a plus-shaped apparatus that was raised from the floor and had two open and two enclosed arms. Within the context of EPM, anxiety-related behavior was measured by the degree to which a mouse avoided the unenclosed arms of the maze. As shown in FIG. 2A and FIG. 2B, the unstressed mice explored the open arms, whereas the chronically stressed mice avoided the open arms and restricted their movements to the closed arms. In OFT, each mouse was placed on an empty table surrounded by walls, and the mouse's movements and the time it spent moving were monitored. Within the context of OFT, anxiety-related behavior was measured by the degree to which a mouse avoided the open center and stayed close to the walls. As shown in FIG. 2C and FIG. 2D, the unstressed mice explored center of the table, whereas the chronically stressed mice avoided the center and remained in the corners. […]

Data set [4] has as its system C57BL/6J male mice. Briefly: induction of anagen on depilated dorsal skin. The following applies: DHM 10% (w/w-%), 1 ml topical daily, day 8; vs vehicle control; similar to minoxidil 2%; P<0.05, N=10.
Text: as §1, §2, §3, §4

The subject of data set [5] is chronically stressed C57BL/6J mice. Put plainly: treatment of stress-induced hair loss (restraint-stressed mice), hair regrowth. The settings on record: 1 μM DHM in 1 oz. Vaseline, topical once per day for six weeks, vs Vaseline alone. On the procedure: as §5

In the case of `O=C1c2c(O)cc(O)cc2O[C@H](c2cc(O)c(O)c(O)c2)[C@H]1O` [DHM, (2R,3R)-3,5,7-trihydroxy-2-(3,4,5-trihydroxyphenyl)-2,3-dihydrochromen-4-one], in the data set on C57BL/6J male mice [1], the “hair regrowth (grading 0-3)” value is given as “statistically significant increase in hair regrowth”. In the data set with c57BL/6J mice, the “changes in body weight” value is “did not exhibit any changes”; the “changes in metabolic rate” value is given as “did not exhibit any changes”; the “rash, redness, or other responses associated with an allergic reaction” value was “did not exhibit rash, redness, or other responses associated with an allergic reaction”. In data set [2], the “locomotor activity in OFT” value is listed as “significantly increased locomotor activity” and the “running distance in OFT” value is listed as “longer running distance comparable to those of unstressed mice”. The “willingness to explore the open arms of the EPM apparatus” value in data set [3] (1 μM DHM in Vaseline, topical once per day for six weeks, compared with unstressed control mice) is recorded as “as willing to explore the open arms of the EPM apparatus as the unstressed control mice”. In data set [3], the “behavioral anxiety (EPM and OFT together)” value was “reversed”. Besides, the “behavioral anxiety (EPM and OFT together)” value in data set [3] (listed as dihydromyricetin) is on record as “behavioral anxiety was reduced”. The “induction of anagen (grading 0-3)” value in the data set with C57BL/6J male mice [4] is given as “significantly different to treatment with the vehicle control”. Also, in data set [5], the “hair regrowth on bald spots” value is recorded as “hair regrowth was observed”. For the same compound, the “hair regrowth on bald spots” value in data set [5] (listed as dihydromyricetin) is “regrowth of hair”.
